Data set [1] has as its system Rattus norvegicus. Briefly: Reduction in ADAMTS-4/ADAMTS-5 mediated aggrecan cleavage products in Lewis rat model of MIA assessed as aggrecanase-cleaved fragments at 30 mg/kg, po bid administered post 3 days MIA induction measured after 4 hrs of last dosage on day 7 by NITEGE sandwich ELISA. It counts as functional. Background: ELISA stands for enzyme-linked immunosorbent assay.

In data set [2] the test system is Rattus norvegicus. Briefly: Reduction in ADAMTS-4/ADAMTS-5 mediated aggrecan cleavage products in Lewis rat model of MIA assessed as aggrecanase-cleaved fragments at 30 mg/kg, po qd administered post 3 days MIA induction measured after 4 hrs of last dosage on day 7 by NITEGE sandwich ELISA. The data set is classed as functional.
Data set [3] can be described thus: Cmax in Lewis rat plasma at 10 mg/kg, po. The data set is classed as ADME, organism-based. Also on record: dose 10 mg/kg, route oral.
A short description of data set [4]: AUC in Lewis rat at 10 mg/kg, po. It counts as ADME, organism-based. The conditions noted are these: in vivo.
Data set [5] in a line: Plasma concentration in Lewis rat model of MIA at 30 mg/kg, po bid administered post 3 days MIA induction measured after 4 hrs of last dosage on day 7. It counts as ADME, organism-based.
A short description of data set [6]: Plasma concentration in Lewis rat model of MIA at 10 mg/kg, po bid administered post 3 days MIA induction measured after 4 hrs of last dosage on day 7. It counts as ADME, organism-based.
Data set [7] in a line: Plasma concentration in Lewis rat at 10 mg/kg, po bid measured after 8 hrs. It counts as ADME, organism-based.

Activity calls are given as the source filed them. No cut-off for these calls is given here.

Turning to `C[C@@]1(O)CCCN(S(=O)(=O)c2ccc(OCc3ccc(F)cc3Cl)cc2)[C@H]1C(=O)NO`, the inhibition result in the data set on Rattus norvegicus [1] and in the data set with Rattus norvegicus [2] was “inactive” in each case.

Broadly, the Cmax is the peak of the concentration-time curve. Usually AUC stands for the area under the concentration-time curve, a measure of exposure. Read a low AUC as low exposure. Compound `O=C1NC(=O)[C@](CNC(=O)c2cc3cc(Cl)ccc3o2)(c2nccs2)N1` displayed a Cmax in data set [3] of 33 µM. This compound came in with an AUC in data set [4] of 130 µM·h. The concentration at 4 h turned out to be 90 µM in data set [5] and 30 µM in data set [6]. In data set [7], this compound gave a concentration at 8 h of 2.2 µM.

For the origin of these results see ChEMBL document CHEMBL4425099, “Use of Osmotic Pumps to Establish the Pharmacokinetic-Pharmacodynamic Relationship and Define Desirable Human Performance Characteristics for Aggrecanase Inhibitors” (J Med Chem, 2016).
